Assay results taken from patent publication US9708305B2, “Substituted 1,2,3,4-tetrahydroisoquinoline derivatives for the treatment of hormone-dependent diseases” (UNIVERSITÉ LAVAL, priority 2013, dated 2017).
Like-named read-outs stand apart in the source and are kept apart here.

Tests used:
steroid sulfatase (STS) = molecular target: T1, steroid sulfatase (STS) (Homo sapiens, UniProt P08842); assay: Steroid sulfatase (STS) inhibition, [3H]-E1S to [3H]-E1, homogenate of transfected HEK-293 cells; assay type: biochemical; details: for inhibition of STS: homogenates of transfected HEK-293 cells
T1 construct: expressed in transfected cells; host or cells: HEK-293 cells stably transfected with STS (G418 selection), obtained from Dr. Van Luu-The; used as freeze-thaw homogenate
T1 sequence (P08842 22-583): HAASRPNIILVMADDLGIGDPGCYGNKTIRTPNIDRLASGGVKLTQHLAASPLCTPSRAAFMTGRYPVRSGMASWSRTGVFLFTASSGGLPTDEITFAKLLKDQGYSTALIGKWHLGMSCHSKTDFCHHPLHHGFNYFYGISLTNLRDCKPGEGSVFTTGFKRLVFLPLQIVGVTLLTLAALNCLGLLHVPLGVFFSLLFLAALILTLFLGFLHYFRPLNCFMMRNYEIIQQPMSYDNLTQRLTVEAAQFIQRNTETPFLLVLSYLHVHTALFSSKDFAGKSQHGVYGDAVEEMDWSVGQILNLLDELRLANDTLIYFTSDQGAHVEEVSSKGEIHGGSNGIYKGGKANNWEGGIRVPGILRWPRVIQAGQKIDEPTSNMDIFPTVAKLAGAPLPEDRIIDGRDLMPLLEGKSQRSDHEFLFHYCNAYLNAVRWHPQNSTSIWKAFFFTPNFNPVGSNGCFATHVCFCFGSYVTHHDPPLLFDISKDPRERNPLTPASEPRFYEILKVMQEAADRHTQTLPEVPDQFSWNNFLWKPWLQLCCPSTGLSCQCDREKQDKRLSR
Description: To test STS inhibition, we used homogenated HEK-293 cells overexpressing STS and evaluated the capacity of our compounds to inhibit the conversion of [^3H]-E1S into [^3H]-E1. […] This is outlined in FIG. 5.
An enzymatic assay previously described was used for the inhibition of the transformation of estrone sulfate (E1S) to estrone (E1) by STS.^72 Briefly, the transfected HEK-293 cells were homogenized by repeated (5 times) cycles of freezing (−80° C.) and thawing on ice (4° C.). The homogenates were then incubated for 2 h at 37° C. (shaking water bath) with or without inhibitors (0.01 μM-1 μM) in presence of [^3H]-E1S (9 nM), adjusted to 1 μM with E1S, in a Tris-acetate buffer (pH 7.4) containing 5 mM EDTA and 10% glycerol. After the incubation, 1 mL of xylene was added to each tube and the solutions were then centrifuged at 3000 rpm for 20 min to separate the organic ([^3H]-E1) and aqueous ([^3H]-E1S) phases. Once 500 μL of each phase was added to 10 mL of Biodegradable Counting Scintillant, the radioactivity of samples was recorded using a Wallac 1411 Liquid Scintillation Counter. The percentage of inhibition was determined by comparison with the control (buffer+homogenate+[^3H]-E1S) which was set to 0% of inhibition. IC50 value was obtained using GraphPad Prism 5 (GraphPad Software, La Jolla, Calif.).

T-47D cells [1] = assay: T-47D cell proliferation in presence of E2 (antiestrogenicity); assay type: cell-based; details: Homo sapiens, T47D; read-out: Breast cancer cells T-47D (ER+) Antagonist activity (%)
Description: (§1) CellTitter 96® Aqueous One Solution Cell Proliferation Assay was used as an indirect colorimetric measurement of cell proliferation according to the manufacturer's instructions. Briefly, after the treatments, 20 μL of MTS solution was added to each well (100 μL) of the plates and incubated at 37° C. for 2 h (Saos-2) or 4 h (T-47D). The absorbance at 490 nm was then measured with a Thermo max microplate reader (Molecular Devices, Sunnyvale, Calif.). The control (culture media+DMSO) is set to 100% of cell proliferation.
(§2) The cells were plated in 96-well plates at a density of 3 000 cells/well and allowed to attach for 48 h. After this pre-incubation, the inhibitors and the reference compounds diluted in fresh culture media were added to the wells and replaced every 2 days for 7 days of treatment.

[2] = test system: osteoblast-like Saos-2 cells; assay: Saos-2 cell proliferation, MTS; assay type: cell-based; details: for Bone cells Saos-2 (ER+) SERM effect Proliferative activity (%): in percentage of control (100%; 0.1 nM of estradiol)
Text: First, we wanted to evaluate their effect on cell proliferation. […] This is outlined in FIG. 8A. […] One of the main roles of osteoblasts in bone tissue is to construct a calcified extracellular matrix.^15 As such, bone formation is not principally due to osteoblasts proliferation but rather osteoblasts maturation into mature osteocytes. […] This is outlined in FIG. 8B.
as §1
Saos-2 cells were suspended in phenol-red free McCoy's 5A medium supplemented with 10% charcoal-stripped FBS, penicillin (100 IU/mL) and streptomycin (100 μg/mL). The cells were seeded in 96-well plates at a density of 3 000 cells/well and allowed to attach. After 24 h, the inhibitors and the reference compounds diluted in fresh culture media were added to the wells and replaced every 2 days for 7 days of treatment.

T-47D cells [3] = assay: T-47D cell proliferation (estrogenicity / cytotoxicity), MTS; assay type: cell-based; details: for activity at 0.01 µM / activity at 0.1 µM / activity at 1 µM: Homo sapiens, T47D, control cells set to 100%, mean±SD; for activity at 0.01 µM / estrogenicity / cytotoxicity on T-47D cells: 0.01 μM; for estrogenicity / cytotoxicity on T-47D cells: 0.1 μM and 1 μM
Description: The library of phenolic compounds described above was tested on estrogen-sensitive breast cancer T-47D cells.
In Table 1, cell proliferation of control cells is set to 100%. Results are expressed as mean±SD of one experiment in triplicate.
as §1, §2

[4] = test system: alkaline phosphatase (ALP) activity in Saos-2 cells; assay: Alkaline phosphatase (ALP) activity in Saos-2 cells; assay type: cell-based; details: 0.1 nM
Description: ALP is an enzyme that releases inorganic phosphate from different intracellular substrates such as pyrophosphate and pyridoxal 5′-phosphate.^63 The inorganic phosphate is used in the formation of hydroxyapatite crystals which are then inserted in the extracellular protein scaffold to form the solid part of bone tissue.
Saos-2 cells were treated similarly as reported in the cell proliferation assay. The cells were seeded at a density of 2 000 cells/well and were treated with the inhibitors and the reference compounds for 3 days. The alkaline phosphatase (ALP) activity was measured using Sensolyte® pNPP Alkaline Phosphatase Assay Kit *Colorimetric* (AnaSpec, Fremont, Calif.) following the manufacturer's protocol. Briefly, after the 3 days of treatment, the cells were washed twice with washing buffer (provided with the kit) and lysed with 0.2% Triton X-100. The cell lysates were centrifuged and the supernatants were used to determine the ALP activity. The supernatants were deposed in a 96-well plate and incubated 30 min with a p-nitrophenyl phosphate solution (provided with the kit). The absorbance at 405 nm was measured with a Thermo max microplate reader (Molecular Devices, Sunnyvale, Calif.). The control (culture media+DMSO) is set to 100% of alkaline phosphatase activity.

[5] = homogenated HEK-293 cells overexpressing STS, [3H]-E1S to [3H]-E1, read-out: STS inhibition IC50

Compound | activity at 0.01 µM (T-47D cells [3]) [%] | activity at 0.1 µM (T-47D cells [3]) [%] | activity at 1 µM (T-47D cells [3]; 1 μM) [%] | further results
NS(=O)(=O)Oc1ccc2c(c1)CN(C(=O)c1ccc(CN(Cc3ccccn3)Cc3ccco3)cc1)CC2 [Compound 32, 2-[(4-{[(furan-2-ylmethyl)(pyridin-2-ylmethyl)amino]methyl}phenyl)carbonyl]-1,2,3,4-tetrahydroisoquinolin-7-yl sulfamate] |  |  |  | IC50 (steroid sulfatase (STS); [5]): 16.6 nM
Cc1ccc(CN(Cc2ccc(C(=O)N3CCc4ccc(OS(N)(=O)=O)cc4C3)cc2)Cc2ccco2)s1 [Compound 33, 2-{[4-({(furan-2-ylmethyl)[(5-methylthiophen-2-yl)methyl]amino}methyl)phenyl]carbonyl}-1,2,3,4-tetrahydroisoquinolin-7-yl sulfamate] |  |  |  | inhibition at 1 µM (T-47D cells [1]): 25%; Saos-2 cell proliferation, dose response ([2]; 1 nM to 1 μM, 7 days): apparent dose-dependent response; Bone cells Saos-2 (ER+) SERM effect Proliferative activity (%) ([2]; 0.1 μM): 33%; Saos-2 cell proliferation ([2]; 1 μM, 7 days, control 100%): ~150%; Bone cells Saos-2 (ER+) SERM effect Proliferative activity (%) ([2]; 1 μM): 211%; Breast cancer cells T-47D (ER+) Agonist activity (%) (T-47D cells [3]; 1 μM, in % of control (100%; 0.1 nM of estradiol)): 0%; Bone cells Saos-2 (ER+) SERM effect Alkaline phosphatase activity (%) [4]: 48%; IC50 (steroid sulfatase (STS); transformation of E1S into E1 in homogenate of HEK-293 cells transfected with STS, read-out: Steroid Sulfatase Inhibition IC50): 3.9 nM
O=C(c1ccc(CN(CCN2CCOCC2)Cc2ccco2)cc1)N1CCc2ccc(O)cc2C1 [Compound 27, [4-({(furan-2-ylmethyl)[2-(morpholin-4-yl)ethyl]amino}methyl)phenyl](7-hydroxy-3,4-dihydroisoquinolin-2(1H)-yl)methanone] | 108 ± 5.5 | 106 ± 1.5 | 119 ± 9.6 | 
O=C(c1ccc(CN(Cc2ccco2)Cc2ccccc2OCCCN2CCCCC2)cc1)N1CCc2ccc(O)cc2C1 [Compound 21] | 96.8 ± 1.2 | 106 ± 5.6 | 0 | 
O=C(c1ccc(CN(CCCn2ccnc2)Cc2ccccn2)cc1)N1CCc2ccc(O)cc2C1 [Compound 23, (7-hydroxy-3,4-dihydroisoquinolin-2(1H)-yl)[4-({[3-(1H-imidazol-1-yl)propyl](pyridin-2-ylmethyl)amino}methyl)phenyl]methanone] | 103 ± 2.2 | 113 ± 3.7 | 39.2 ± 2.9 | 
Cc1ccc(CN(Cc2ccc(C(=O)N3CCc4ccc(O)cc4C3)cc2)Cc2ccccn2)s1 [Compound 28, (7-hydroxy-3,4-dihydroisoquinolin-2(1H)-yl)[4-({[(5-methylthiophen-2-yl)methyl](pyridin-2-ylmethyl)amino}methyl)phenyl]methanone] | 101 ± 3.8 | 105 ± 4.4 | 78.9 ± 6.8 | 
COc1ccc(CN(Cc2ccc(C(=O)N3CCc4ccc(OS(N)(=O)=O)cc4C3)cc2)Cc2ccccn2)cc1 [Compound 34, 2-[(4-{[(4-methoxybenzyl)(pyridin-2-ylmethyl)amino]methyl}phenyl)carbonyl]-1,2,3,4-tetrahydroisoquinolin-7-yl sulfamate] |  |  |  | IC50 (steroid sulfatase (STS); [5]): 3.9 nM
O=C(c1ccc(CN(Cc2ccc(OCCCN3CCCCC3)cc2)Cc2ccco2)cc1)N1CCc2ccc(O)cc2C1 [Compound 22, (4-{[(furan-2-ylmethyl){4-[3-(piperidin-1-yl)propoxy]benzyl}amino]methyl}phenyl)(7-hydroxy-3,4-dihydroisoquinolin-2(1H)-yl)methanone] | 95.6 ± 1.8 | 120 ± 4.8 | 134 ± 3 | 
O=C(c1ccc(CN(Cc2ccccn2)Cc2ccco2)cc1)N1CCc2ccc(O)cc2C1 [Compound 25, (4-{[(furan-2-ylmethyl)(pyridin-2-ylmethyl)amino]methyl}phenyl)(7-hydroxy-3,4-dihydroisoquinolin-2(1H)-yl)methanone] | 104 ± 2.3 | 103 ± 2.5 | 104 ± 6.5 | estrogenicity / cytotoxicity on T-47D cells (T-47D cells [3]): neither estrogenicity nor cytotoxicity; inhibition of STS (steroid sulfatase (STS)): no significant inhibition
O=C(c1ccc(CN(Cc2ccc(Br)cc2)Cc2ccco2)cc1)N1CCc2ccc(O)cc2C1 [Compound 26, (4-{[(4-bromobenzyl)(furan-2-ylmethyl)amino]methyl}phenyl)(7-hydroxy-3,4-dihydroisoquinolin-2(1H)-yl)methanone] | 106.3 ± 0.6 | 109 ± 1.2 | 59.2 ± 3.1 | 
O=C(c1ccc(CN(Cc2ccc(O)cc2)Cc2ccco2)cc1)N1CCc2ccc(O)cc2C1 [Compound 30, (4-{[(furan-2-ylmethyl)(4-hydroxybenzyl)amino]methyl}phenyl)(7-hydroxy-3,4-dihydroisoquinolin-2(1H)-yl)methanone] | 108 ± 5.5 | 138 ± 1.2 | 200 ± 4.9 | 
COc1ccc(CN(Cc2ccc(C(=O)N3CCc4ccc(O)cc4C3)cc2)Cc2ccccn2)cc1 [Compound 31, (7-hydroxy-3,4-dihydroisoquinolin-2(1H)-yl)(4-{[(4-methoxybenzyl)(pyridin-2-ylmethyl)amino]methyl}phenyl)methanone] | 105.6 ± 0.6 | 105 ± 7.4 | 101 ± 7.9 | estrogenicity / cytotoxicity on T-47D cells (T-47D cells [3]): neither estrogenicity nor cytotoxicity; inhibition of STS (steroid sulfatase (STS)): no significant inhibition
